Where a name gives a salt, the structure may show the parent alone.
Biological target: T1, [3H]ifenprodil binding site, rat forebrain membranes (Rattus norvegicus, UniProt P35439+Q00960)
T1 construct: membrane fraction was prepared from frozen adult rat forebrains; tissue Zivic-Miller Laboratories, Inc; host or cells: adult rat forebrain, washed buffy coat membrane fraction
Test: [3H]Ifenprodil binding assay
Settings: 4 nM [3H]-ifenprodil, 2 hours at room temperature
Procedure: All buffers and reagents used in assay incubations or to dissolve drugs were prepared using water purified through a Milli-Q reverse osmosis system (Millipore Corp, Bedford, Mass.) and treated with UV emissions. Prior to use in the assays, buffers were further filtered through a sterile Corning filtration unit (Corning Glass Works, Corning, N.Y.) containing a 0.2-micron filter. Buffer used to rinse the membranes on the assay filters was prepared with purified water, but was not refiltered and was stored no longer than 5 days. Stock solutions of the drugs (usually 10 mM) were dissolved in 20 mM HEPES-KOH buffer pH 7.4 (assay buffer) with the addition of 1 to 5 μL of glacial AcOH, if needed to keep them in solution. For eliprodil the stock solution was buffered with the addition of 10% DMSO. All subsequent dilutions from stock were made in buffer.
An extensively washed buffy coat membrane fraction was prepared from frozen adult rat forebrains (Zivic-Miller Laboratories, Inc., Zelienople, Pa.) as described previously (Coughenour L. L., Cordon, J. J., J. Pharmacol. Exp. Ther., 1997;280:584-592) and stored at −80° C. On the day of the assay, pellets were resuspended in 35 mL of assay buffer at pH 7.4 using a Polytron setting 6. After incubation at 37° C. for 30 minutes in a shaking water bath, the homogenate was centrifuged 40,000×g for 10 minutes at 4° C. The pellets were resuspended in fresh buffer and centrifuged 3 more times before final suspension for use in the assay.
[^3H]Ifenprodil Binding. Triplicate incubations were carried out in a volume of 0.5 mL in 1.3 mL polypropylene tubes (Marsh Biomedical Products Inc., Rochester, N.Y.) for 2 hours at room temperature. Incubations contained test agents, membranes (100-200 μg protein) and 4 nM[^3H]-ifenprodil in 20 mM HEPES-KOH buffer, pH 7.4 (assay buffer). Assays were started by addition of the membranes. Bound radioligand was separated by filtration under reduced pressure using a Tomtec Mach II, 96-well cell harvester (Tomtec Inc., Orange, Colo.). Filtration was through Whatman GF/B glass fiber filters (Whatman Ltd, Maidstone, England), which had been soaked for at least 15 minutes in 0.3% polyethylenimine and allowed to air dry. The filters were rinsed with 3 mL of ice cold assay buffer within 6 seconds. Air was allowed to pass through the filters for an additional 10 seconds to remove residual moisture. The filter mat was supported on a cold (−20° C.) teflon support, and filters from individual wells were separated and placed in Mini Poly-Q vials (Beckman Instruments Inc., Fullerton, Calif.) and filled with 4 mL of scintillation cocktail (Beckman Ready Protein^+). Radioactivity retained on the filter was determined by liquid scintillation spectrophotometry. Nonspecific binding was defined as the binding in the presence of 1 mM ifenprodil. Specific binding was 90%.
Data analysis. Binding curves were statistically analyzed for a best one or two site competition fit using GraphPad Prism software (GraphPad Software Inc., San Diego, Calif.). The normalized data was fit by nonweighted nonlinear regression to either [formula]
Control data was entered as 100%, and no parameters were constrained. Inhibition curves were compared by ANOVA with post test comparisons of the logIC50 using Dunnett's multiple comparisons post test or Student's nonpaired, two-tailed t-test (GraphPad InStat software).

T1 sequence (Q00960 27-1482, other chains not shown): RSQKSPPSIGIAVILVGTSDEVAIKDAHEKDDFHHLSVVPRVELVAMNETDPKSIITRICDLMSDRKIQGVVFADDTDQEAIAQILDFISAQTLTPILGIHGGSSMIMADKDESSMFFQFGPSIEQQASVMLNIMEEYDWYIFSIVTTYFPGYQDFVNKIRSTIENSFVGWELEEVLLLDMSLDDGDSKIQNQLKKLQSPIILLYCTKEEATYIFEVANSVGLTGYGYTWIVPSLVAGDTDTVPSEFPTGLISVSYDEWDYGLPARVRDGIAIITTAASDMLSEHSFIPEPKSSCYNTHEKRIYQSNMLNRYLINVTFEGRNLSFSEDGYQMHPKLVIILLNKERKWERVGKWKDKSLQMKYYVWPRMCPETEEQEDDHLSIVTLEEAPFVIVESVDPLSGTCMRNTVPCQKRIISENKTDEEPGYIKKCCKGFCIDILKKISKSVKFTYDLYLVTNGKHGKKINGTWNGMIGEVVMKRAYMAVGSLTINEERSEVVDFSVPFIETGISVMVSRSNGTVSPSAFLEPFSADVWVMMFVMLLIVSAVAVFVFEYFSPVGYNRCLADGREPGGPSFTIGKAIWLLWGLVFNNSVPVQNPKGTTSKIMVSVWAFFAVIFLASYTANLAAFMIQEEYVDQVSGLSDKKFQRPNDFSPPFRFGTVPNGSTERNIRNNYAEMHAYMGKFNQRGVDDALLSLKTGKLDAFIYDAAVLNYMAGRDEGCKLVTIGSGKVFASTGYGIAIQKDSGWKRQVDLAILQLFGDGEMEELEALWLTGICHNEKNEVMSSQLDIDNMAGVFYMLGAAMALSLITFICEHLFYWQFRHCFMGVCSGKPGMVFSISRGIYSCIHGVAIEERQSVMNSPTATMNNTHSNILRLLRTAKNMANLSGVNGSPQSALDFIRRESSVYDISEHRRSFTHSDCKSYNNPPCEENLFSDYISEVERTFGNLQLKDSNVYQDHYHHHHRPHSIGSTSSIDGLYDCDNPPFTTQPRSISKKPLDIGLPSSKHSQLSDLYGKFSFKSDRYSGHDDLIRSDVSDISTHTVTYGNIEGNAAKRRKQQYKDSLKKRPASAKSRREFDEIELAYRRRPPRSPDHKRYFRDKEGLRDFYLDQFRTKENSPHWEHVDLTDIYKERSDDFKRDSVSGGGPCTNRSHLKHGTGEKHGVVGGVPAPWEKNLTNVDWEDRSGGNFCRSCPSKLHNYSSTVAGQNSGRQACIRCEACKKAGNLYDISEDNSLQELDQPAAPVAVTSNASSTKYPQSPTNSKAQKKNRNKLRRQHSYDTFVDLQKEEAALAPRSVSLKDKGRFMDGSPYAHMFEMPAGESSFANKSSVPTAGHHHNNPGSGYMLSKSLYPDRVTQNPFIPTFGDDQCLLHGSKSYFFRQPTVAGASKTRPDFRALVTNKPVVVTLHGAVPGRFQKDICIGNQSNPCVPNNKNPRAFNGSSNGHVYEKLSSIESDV

SMILES	IC50
O=c1[nH]c2ccc(C3=CCC(NCCCc4ccccc4)CC3)cc2o1 (centres unmarked) [Example 6, 6-[4-(3-Phenylpropylamino)cyclohex-1-enyl]-3H-benzoxazol-2-one]	9 nM
CN(C)c1ccc(CCCN(C)[C@H]2CC[C@H](c3ccc4[nH]c(=O)oc4c3)CC2)cc1 [Example 58, 6-(4-{[3(trans-4-Dimethylaminophenyl)propyl]methylamino}cyclohexyl)-3H-benzoxazol2-one]	357 nM

Tested on: not given
Test: not given
Settings: not given

SMILES	melting point
O=c1[nH]c2ccc(C3=CCC(NCCCc4ccccc4)CC3)cc2o1 (centres unmarked) [Example 6, 6-[4-(3-Phenylpropylamino)cyclohex-1-enyl]-3H-benzoxazol-2-one]	293 to 295 °C
C[C@H](N[C@H]1CC[C@H](c2ccc3[nH]c(=O)oc3c2)CC1)[C@H](O)c1ccccc1 (stereo in doubt) (as salt: HCl) [Example 12, 6-{trans-4-[(1S,2R)-2-Hydroxy-1-methyl-2-phenylethylamino]cyclohexyl}-3H-benzoxazol-2-one]	251 to 256 °C
O=c1[nH]c2ccc([C@H]3CC[C@H](NCCCc4ccc(C(F)(F)F)cc4)CC3)cc2o1 (as salt: HCl) [Example 14, 6-{trans-4-[3-(4-Trifluoromethylphenyl)propylamino]cyclohexyl}-3H-benzoxazol-2-one]	285 to 295 °C
CN(CCN(C)[C@H]1CC[C@H](c2ccc3[nH]c(=O)oc3c2)CC1)c1ccccc1 (as salt: HCl) [Example 60, 6-(trans-4-{Methyl-[2-(Methylphenylamino)ethyl]amino}cyclohexyl)-3H-benzoxazol-2-one]	240 to 243 °C
O=c1[nH]c2ccc([C@H]3CC[C@H](NCCSc4ccccc4)CC3)cc2o1 (as salt: HCl) [Example 5a, 6-[trans-4-(2-Phenylsulfanylethylamino)cyclohexyl]-3H-benzoxazol-2-one]	241 to 243 °C
CCN([C@H]1CC[C@H](c2ccc3[nH]c(=O)oc3c2)CC1)[C@@H](C)CCc1ccccc1 (as salt: HCl) [Example 28, 6-(trans-4-{Ethyl-[(S)-1-methyl-3-phenylpropyl]amino}cyclohexyl)-3H-benzoxazol-2-one]	221 to 246 °C
CCN(CCCc1ccc(F)cc1)[C@H]1CC[C@H](c2ccc3[nH]c(=O)oc3c2)CC1 (as salt: HCl) [Example 25, 6-(trans-4-{Ethyl-[3-(4-fluorophenyl)propyl]amino}cyclohexyl)-3H-benzoxazol-2-one]	228 to 231 °C
CN(C)c1ccc(CCCN(C)[C@H]2CC[C@H](c3ccc4[nH]c(=O)oc4c3)CC2)cc1 [Example 58, 6-(4-{[3(trans-4-Dimethylaminophenyl)propyl]methylamino}cyclohexyl)-3H-benzoxazol2-one]	182 to 184 °C
CN(CCCc1ccc(F)cc1F)[C@H]1CC[C@H](c2ccc3[nH]c(=O)oc3c2)CC1 (as salt: HCl) [Example 24b, 6-(trans-4-{[3-(2,4-Difluorophenyl)propyl]methylamino}cyclohexyl)-3H-benzoxazol-2-one]	269 to 272 °C
Cc1c(F)cccc1CCCN(C)[C@H]1CC[C@H](c2ccc3[nH]c(=O)oc3c2)CC1 (as salt: HCl) [Example 48b, 6-(trans-4-{[3-(3-Fluoro-2-methylphenyl)propyl]methylamino}cyclohexyl)-3H-benzoxazol-2-one]	264 to 269 °C
O=c1[nH]c2ccc([C@H]3CC[C@H](N(CCO)CCCc4ccc(F)cc4)CC3)cc2o1 (as salt: HCl) [Example 29, 6-{trans-4-[[3-(4-Fluorophenyl)propyl]-(2-hydroxyethyl)amino]cyclohexyl}-3H-benzoxazol-2-one]	259 to 262 °C
C[C@H](CCc1ccccc1)N[C@H]1CC[C@H](c2ccc3[nH]c(=O)oc3c2)CC1 (as salt: HCl) [Example 9, 6-{trans-4-[(R)-1-Methyl-3-phenylpropylamino]cyclohexyl}-3H-benzoxazol-2-one]	291 to 304 °C
CC(C)CN(CCCc1ccc(F)cc1)[C@H]1CC[C@H](c2ccc3[nH]c(=O)oc3c2)CC1 (as salt: HCl) [Example 33, 6-(trans-4-{[3-(4-Fluorophenyl)propyl]isobutylamino}cyclohexyl)-3H-benzoxazol-2-one]	199 to 201 °C
Cc1cc2[nH]c(=O)oc2cc1[C@H]1CC[C@H](N(C)CCCc2ccc(F)cc2)CC1 (as salt: salt) [Example 64, 6-(4-{[3-(4-Fluorophenyl)propyl]methyl-amino}cyclohexyl)-5-methyl-3H-benzoxazol-2-one]	264 to 267 °C
CN(CCCc1c(F)cc(F)cc1F)[C@H]1CC[C@H](c2ccc3[nH]c(=O)oc3c2)CC1 (as salt: HCl) [Example 57, 6-(trans-4-{[3-(2,4,6-Trifluorophenyl)propyl]methylamino}cyclohexyl)-3H-benzoxazol-2-one]	235 to 238 °C
O=c1[nH]c2ccc([C@H]3CC[C@H](N(CCCc4ccc(F)cc4)CC4CC4)CC3)cc2o1 (as salt: HCl) [Example 30, 6-(trans-4-{Cyclopropylmethyl-[3-(4-fluorophenyl)propyl]amino}cyclohexyl)-3H-benzoxazol-2-one]	221 to 225 °C
Cc1ccc(CCCN(C)[C@H]2CC[C@H](c3ccc4[nH]c(=O)oc4c3)CC2)cc1 (as salt: HCl) [Example 21, 6-{trans-4-[Methyl-3-(p-Tolylpropyl)amino]cyclohexyl}-3H-benzoxazol-2-one]	213 to 225 °C
CN(CCCc1nccs1)[C@H]1CC[C@H](c2ccc3[nH]c(=O)oc3c2)CC1 (as salt: HCl) [Example 59, 6-{trans-4-[Methyl(3-thiazol-2-ylpropyl)amino]cyclohexyl}-3H-benzoxazol-2-one]	237 to 239 °C
O=c1[nH]c2ccc([C@H]3CC[C@H](NCCSc4ccc(F)cc4)CC3)cc2o1 (as salt: HCl) [Example 8, 6-{trans-4-[2-(4-Fluorophenylsulfanyl)ethylamino]cyclohexyl}-3H-benzoxazol-2-one]	254 to 256 °C
CN(CCCc1ccc(F)c(F)c1)[C@H]1CC[C@H](c2ccc3[nH]c(=O)oc3c2)CC1 (as salt: HCl) [Example 40b, 6-(trans-4-{[3-(3,4-Difluorophenyl)propyl]methylamino}cyclohexyl)-3H-benzoxazol-2-one]	224 to 227 °C
CN(CCCc1ccsc1)[C@H]1CC[C@H](c2ccc3[nH]c(=O)oc3c2)CC1 (as salt: HCl) [Example 52b, 6-[trans-4-{[3-(3-Thiophen-3-yl)propyl]methylamino}cyclohexyl)-3H-benzoxazol-2-one]	246 to 248 °C
CN(CCCC1CCCCC1)[C@H]1CC[C@H](c2ccc3[nH]c(=O)oc3c2)CC1 (as salt: HCl) [Example 49b, 6-{trans-4-[(3-Cyclohexylpropyl)methylamino]cyclohexyl}-3H-benzoxazol-2-one]	247 to 251 °C
CN(CCSc1ccc(F)cc1)[C@H]1CC[C@H](c2ccc3[nH]c(=O)oc3c2)CC1 (as salt: HCl) [Example 20, 6-{trans-4-[2-(4-Fluorophenylsulfanylethyl)methylamino]cyclohexyl}-3H-benzoxazol-2-one]	213 to 217 °C
NCCN(CCCc1ccc(F)cc1)[C@H]1CC[C@H](c2ccc3[nH]c(=O)oc3c2)CC1 (as salt: HCl) [Example 35, 6-(trans-4-{(2-Aminoethyl)-[3-(4-fluorophenyl)propyl]amino}cyclohexyl)-3H-benzoxazol-2-one]	161 to 169 °C
CCN(CCCc1ccc(C(F)(F)F)cc1)[C@H]1CC[C@H](c2ccc3[nH]c(=O)oc3c2)CC1 (as salt: HCl) [Example 26]	248 to 252 °C
CC(C)Cc1ccc(CCCN(C)[C@H]2CC[C@H](c3ccc4[nH]c(=O)oc4c3)CC2)cc1 (as salt: HCl) [Example 56, 6-(trans-4-{[3-(4-Isobutylphenyl)propyl]methylamino}cyclohexyl)-3H-benzoxazol-2-one]	162 to 165 °C
CN(CCCc1ccc(F)c(F)c1F)[C@H]1CC[C@H](c2ccc3[nH]c(=O)oc3c2)CC1 (as salt: HCl) [Example 55, 6-(trans-4-{[3-(2,3,4-Trifluorophenyl)propyl]methylamino}cyclohexyl)-3H-benzoxazol-2-one]	269 to 274 °C
